Consider 20 compounds from US12384808B2, “Modulators of TNF-α activity” (Forward Therapeutics, Inc., priority 2022, dated 2025).

Bounds are passed on as bounds.

TNFα, sequence (P01375 77-233 limits assumed): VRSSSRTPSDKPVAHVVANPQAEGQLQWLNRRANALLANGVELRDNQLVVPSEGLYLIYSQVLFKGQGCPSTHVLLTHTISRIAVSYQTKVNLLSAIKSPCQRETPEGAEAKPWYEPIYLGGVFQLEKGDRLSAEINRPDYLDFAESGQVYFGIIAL

The target in this experiment is TNFα (Homo sapiens, UniProt P01375). As to the kind of experiment: TNFα Induced HEK Blue Cellular Assay. Type of experiment: cell-based. The note with it: HEK Blue TNFα reporter cells, TNFα 100 pg/ml, 24 hrs at 37° C., secreted alkaline phosphatase (QUANTI-Blue) read at 620 nm; read-out: IC50 value. The procedure:
TNFα Induced HEK Blue Cellular Assay
Test articles were diluted in DMSO and serially diluted into 384 well assay plate (Corning 3765), at final concentrations ranging from […] to 0.5 nM. HEK Blue™ TNFα reporter cells were added at a final density of 10,000 cell per well in assay media [DMEM (Gibco, cat #21063-029), 10% fetal bovine serum (ExcelBio, cat #FND500), 1% Penicillin-Streptomycin (Solarbio, cat #P1400-100]. TNFα (R&D 210-TA-020/CF) was then added to the assay plate at a final concentration of 100 pg/ml. This plate was then incubated for 24 hrs at 37° C. and 5% CO2. Secreted alkaline phosphatase expression was then measured using QUANTI-Blue™ (Invivogen), according to manufacturer instructions and read on an Envision microplate reader at 620 nm.
Inhibition data for test compound over a range of concentration was plotted as percentage inhibition of the test compound (100%=maximum inhibition). IC50 values were determined after correcting for background [(sample read−mean of low control)/(mean of high control−mean of low control)] where by the low control is DMSO without stimulation and high control is DMSO with stimulation. The IC50 is defined as the concentration of test compound which produces 50% inhibition and was quantified using the 4 parameter logistic equation to fit the data.
For `CN1C(=O)c2cccc(OC(F)F)c2[C@H]2C[C@@H]1c1nc3ccc(-c4cnc(NCP(C)(C)=O)c(F)c4)cc3n12` [Example 16, (1R,11R)-18-(difluoromethoxy)-5-(6-{[(dimethylphosphoryl)methyl]amino}-5-fluoropyridin-3-yl)-12-methyl-2,9,12-triazapentacyclo[9.8.1.0^{2,10}.0^{3,8}.0^{14,19}]icosa-3(8),4,6,9,14(19),15,17-heptaen-13-one], the IC50 was less than 100 nM.

As for `[2H]C([2H])([2H])N1C(=O)c2cccc(OC(F)F)c2[C@H]2C[C@@H]1c1nc3ccc(-c4ccc(P(C)(C)=O)nc4)cc3n12` [Example 17, (7R,14R)-1-(difluoromethoxy)-11-(6-(dimethylphosphoryl)pyridin-3-yl)-6-(methyl-d3)-6,7-dihydro-7,14-methanobenzo[f]benzo[4,5]imidazo[1,2-a][1,4]diazocin-5(14H)-one], the half-maximal inhibitory concentration (IC50) was less than 100 nM.

For `CN1C(=O)c2cccc(OC(F)F)c2[C@H]2C[C@@H]1c1nc3ccc(-c4ccc(OCP(C)(C)=O)c(F)c4)cc3n12` [Example 18, (1R,11R)-18-(difluoromethoxy)-5-{4-[(dimethylphosphoryl)methoxy]-3-fluorophenyl}-12-methyl-2,9,12-triazapentacyclo[9.8.1.0^{2,10}.0^{3,8}.0^{14,19}]icosa-3(8),4,6,9,14(19),15,17-heptaen-13-one], the concentration for half-maximal inhibition (IC50) was less than 100 nM. As for `CCN1C(=O)c2cccc(OC(F)F)c2[C@H]2C[C@@H]1c1nc3ccc(-c4ccc(P(C)(C)=O)nc4)cc3n12` [Example 19, (1R,11R)-18-(difluoromethoxy)-5-[6-(dimethylphosphoryl)pyridin-3-yl]-12-ethyl-2,9,12-triazapentacyclo[9.8.1.0^{2,10}.0^{3,8}.0^{14,19}]icosa-3(8),4,6,9,14(19),15,17-heptaen-13-one], the figure is less than 100 nM; as for `CN1C(=O)c2cccc(OC(F)F)c2[C@H]2C[C@@H]1c1nc3ccc(-c4cnn(CP(C)(C)=O)c4)cc3n12` [Example 21, (1R,11R)-18-(difluoromethoxy)-5-{1-[(dimethylphosphoryl)methyl]pyrazol-4-yl}-12-methyl-2,9,12-triazapentacyclo[9.8.1.0^{2,10}.0^{3,8}.0^{14,19}]icosa-3(8),4,6,9,14(19),15,17-heptaen-13-one], 100 to 1000 nM; as for `CN1C(=O)c2cccc(OC(F)F)c2[C@H]2C[C@@H]1c1nc3ccc(-c4ccc(CP(C)(C)=O)nc4)cc3n12` [Example 22, (1R,11R)-18-(difluoromethoxy)-5-{6-[(dimethylphosphoryl)methyl]pyridin-3-yl}-12-methyl-2,9,12-triazapentacyclo[9.8.1.0^{2,10}.0^{3,8}.0^{14,19}]icosa-3(8),4,6,9,14(19),15,17-heptaen-13-one], less than 100 nM. In the case of `CN1C(=O)c2cccc(OC(F)F)c2[C@H]2C[C@@H]1c1nc3ccc(-c4ccc(NCP(C)(C)=O)nc4)cc3n12` [Example 23, (1R,11R)-18-(difluoromethoxy)-5-(6-{[(dimethylphosphoryl)methyl]amino}pyridin-3-yl)-12-methyl-2,9,12-triazapentacyclo[9.8.1.0^{2,10}.0^{3,8}.0^{14,19}]icosa-3(8),4,6,9,14(19),15,17-heptaen-13-one], the half-maximal inhibitory concentration (IC50) was less than 100 nM. Consider `[2H]C([2H])([2H])N1C(=O)c2cccc(OC(F)F)c2[C@H]2C[C@@H]1c1nc3ccc(-c4ccc(P(C)(C)=O)c(F)c4)cc3n12` [Example 24, (7R,14R)-1-(difluoromethoxy)-11-(4-(dimethylphosphoryl)-3-fluorophenyl)-6-(methyl-d3)-6,7-dihydro-7,14-methanobenzo[f]benzo[4,5]imidazo[1,2-a][1,4]diazocin-5(14H)-one], for which the IC50 is less than 100 nM.

Consider `CN1C(=O)c2cccc(OC(F)F)c2[C@H]2C[C@@H]1c1nc3ccc(-c4cnc(OCP(C)(C)=O)s4)cc3n12` [Example 25, (1R,11R)-18-(difluoromethoxy)-5-{2-[(dimethylphosphoryl)methoxy]-1,3-thiazol-5-yl}-12-methyl-2,9,12-triazapentacyclo[9.8.1.0^{2,10}.0^{3,8}.0^{14,19}]icosa-3(8),4,6,9,14(19),15,17-heptaen-13-one], for which the IC50 was less than 100 nM. In the case of `CN1C(=O)c2cccc(OC(F)F)c2[C@H]2C[C@@H]1c1nc3ccc(-c4ccc(P(C)(C)=O)cc4Cl)cc3n12` [Example 27, (1R,11R)-5-[2-chloro-4-(dimethylphosphoryl)phenyl]-18-(difluoromethoxy)-12-methyl-2,9,12-triazapentacyclo[9.8.1.0^{2,10}.0^{3,8}.0^{14,19}]icosa-3(8),4,6,9,14(19),15,17-heptaen-13-one], the concentration for half-maximal inhibition (IC50) is less than 100 nM.

`CN1C(=O)c2cccc(OC(F)F)c2[C@H]2C[C@@H]1c1nc3ccc(-c4ccc(P(C)(C)=O)cc4F)cc3n12` [Example 28, (1R,11R)-18-(difluoromethoxy)-5-[4-(dimethylphosphoryl)-2-fluorophenyl]-12-methyl-2,9,12-triazapentacyclo[9.8.1.0^{2,10}.0^{3,8}.0^{14,19}]icosa-3(8),4,6,9,14(19),15,17-heptaen-13-one]: the IC50 was less than 100 nM. As for `Cc1cc(P(C)(C)=O)ccc1-c1ccc2nc3n(c2c1)[C@@H]1C[C@H]3N(C)C(=O)c2cccc(OC(F)F)c21` [Example 29, (1R,11R)-18-(difluoromethoxy)-5-[4-(dimethylphosphoryl)-2-methylphenyl]-12-methyl-2,9,12-triazapentacyclo[9.8.1.0^{2,10}.0^{3,8}.0^{14,19}]icosa-3(8),4,6,9,14(19),15,17-heptaen-13-one], the figure is less than 100 nM; as for `CN(CP(C)(C)=O)c1ccc(-c2ccc3nc4n(c3c2)[C@@H]2C[C@H]4N(C)C(=O)c3cccc(OC(F)F)c32)cn1` [Example 30, (1R,11R)-18-(difluoromethoxy)-5-(6-{[(dimethylphosphoryl)methyl](methyl)amino}pyridin-3-yl)-12-methyl-2,9,12-triazapentacyclo[9.8.1.0^{2,10}.0^{3,8}.0^{14,19}]icosa-3(8),4,6,9,14(19),15,17-heptaen-13-one], less than 100 nM; as for `CP(C)(=O)c1ccc(-c2ccc3nc4n(c3c2)[C@@H]2C[C@H]4NC(=O)c3cccc(OC(F)F)c32)c(F)c1` [Example 31, (1R,11R)-18-(difluoromethoxy)-5-[4-(dimethylphosphoryl)-2-fluorophenyl]-2,9,12-triazapentacyclo[9.8.1.0^{2,10}.0^{3,8}.0^{14,19}]icosa-3(8),4,6,9,14(19),15,17-heptaen-13-one], less than 100 nM.

On to `Cc1cc(P(C)(C)=O)ccc1-c1ccc2nc3n(c2c1)[C@@H]1C[C@H]3NC(=O)c2cccc(OC(F)F)c21` [Example 32, (1R,11R)-18-(difluoromethoxy)-5-[4-(dimethylphosphoryl)-2-methylphenyl]-2,9,12-triazapentacyclo[9.8.1.0^{2,10}.0^{3,8}.0^{14,19}]icosa-3(8),4,6,9,14(19),15,17-heptaen-13-one], for which the half-inhibitory concentration (IC50) was less than 100 nM.

With `CN1C(=O)c2cccc(OC(F)F)c2[C@H]2C[C@@H]1c1nc3ccc(-c4ccc(CP(C)(C)=O)cc4)cc3n12` [Example 33, (1R,11R)-18-(difluoromethoxy)-5-{4-[(dimethylphosphoryl)methyl]phenyl}-12-methyl-2,9,12-triazapentacyclo[9.8.1.0^{2,10}.0^{3,8}.0^{14,19}]icosa-3(8),4,6,9,14(19),15,17-heptaen-13-one], the half-maximal inhibitory concentration (IC50) was less than 100 nM. Regarding `CP(C)(=O)c1ccc(-c2ccc3nc4n(c3c2)[C@@H]2C[C@H]4NC(=O)c3cccc(OC(F)F)c32)c(F)c1F` [Example 34, (1R,11R)-18-(difluoromethoxy)-5-[4-(dimethylphosphoryl)-2,3-difluorophenyl]-2,9,12-triazapentacyclo[9.8.1.0^{2,10}.0^{3,8}.0^{14,19}]icosa-3(8),4,6,9,14(19),15,17-heptaen-13-one], the IC50 was less than 100 nM. With `CP(C)(=O)c1c(F)cc(-c2ccc3nc4n(c3c2)[C@@H]2C[C@H]4NC(=O)c3cccc(OC(F)F)c32)cc1F` [Example 35, (1R,11R)-18-(difluoromethoxy)-5-[4-(dimethylphosphoryl)-3,5-difluorophenyl]-2,9,12-triazapentacyclo[9.8.1.0^{2,10}.0^{3,8}.0^{14,19}]icosa-3(8),4,6,9,14(19),15,17-heptaen-13-one], the IC50 was 100 to 1000 nM.

With `CN1C(=O)c2cccc(OC(F)F)c2[C@H]2C[C@@H]1c1nc3ccc(-c4ccc(P(C)(C)=O)c(F)c4F)cc3n12` [Example 36, (1R,11R)-18-(difluoromethoxy)-5-[4-(dimethylphosphoryl)-2,3-difluorophenyl]-12-methyl-2,9,12-triazapentacyclo[9.8.1.0^{2,10}.0^{3,8}.0^{14,19}]icosa-3(8),4,6,9,14(19),15,17-heptaen-13-one], the 50% inhibitory concentration (IC50) was less than 100 nM. `CN1C(=O)c2cccc(OC(F)F)c2[C@H]2C[C@@H]1c1nc3ccc(-c4cc(F)c(P(C)(C)=O)c(F)c4)cc3n12` [Example 37, (1R,11R)-18-(difluoromethoxy)-5-[4-(dimethylphosphoryl)-3,5-difluorophenyl]-12-methyl-2,9,12-triazapentacyclo[9.8.1.0^{2,10}.0^{3,8}.0^{14,19}]icosa-3(8),4,6,9,14(19),15,17-heptaen-13-one]: the IC50 was less than 100 nM.

In general, IC50 refers to the concentration that gives 50% inhibition.
